According to US9227977B2, “Phosphoinositide 3-kinase inhibitors” (RESPIVERT LTD., priority 2013, dated 2016):
Where two headings read alike, the source gives them in different places.

Columns and labels:
[1] = tested on: LPS-induced airway neutrophilia in rats; assay: LPS-induced airway neutrophil accumulation in rats; type: in vivo, rat; conditions: i-t; for Neutrophil numbers in BALF: mean ± SEM
Procedure: Non-fasted rats were dosed with either vehicle or the test compound by intra-tracheal administration (dose volume 100 μL) at time points T=−2 h, −8 h, or −12 h with respect to the start of LPS treatment. The LPS solution (0.3 mg/mL) was aerosolised using a De Vibliss ultrasonic nebuliser 2000 (7 mL during 30 min). At eight hr after LPS challenge, the trachea was cannulated and bronchoalveolar lavage fluid (BALF) extracted by infusing and then withdrawing PBS (1 mL) into the lungs via the tracheal catheter. This procedure was repeated to provide approximately 2 mL of lavage fluid.
Total cell numbers in the BALF samples were measured using a Countess automated cell counter (Invitrogen). Cytospin smears of the BALF samples were prepared by centrifugation at 1200 rpm for 2 min at RT and stained using a DiffQuik stain system (Dade Behring) for differential cell counts. Cells were counted using oil immersion microscopy. Data are expressed as neutrophil number of cells per mL of BALF (mean±S.E.M).

[2] = tested on: poly-I:C-induced cell accumulation in mice airways; assay: Poly-I:C-induced cell accumulation in mice; type: in vivo, mouse; conditions: for % inhibition, Macrophages in BALF / % inhibition, Neutrophils in BALF / Cell numbers in BALF, Macrophages / Cell numbers in BALF, Neutrophils: mice, poly I:C, intra-nasal; for Cell numbers in BALF, Macrophages / Cell numbers in BALF, Neutrophils: mean ± SEM
Procedure: Specific pathogen-free A/J mice (males, 5 weeks old) were dosed with poly (I:C)-LMW (1 mg/mL, 40 μL) (InvivoGen, San Diego, Calif., USA) intranasally twice daily for 3 days under anaesthasia (3% isoflurane). Test substances were dosed intra-nasally (50 μL in 10% DMSO/isotonic saline vehicle) 2 hr before each poly-I:C treatment. At 24 hr after the last poly-I:C challenge, animals were anesthetized, the trachea was cannulated and bronchial alveolar lavage (BAL) was obtained by instilling into and then withdrawing from the lungs, isotonic saline (100 mL/kg). Total cell numbers in the BALF samples were measured using a haemocytometer under a phase-contrast microscope.
The proportions of alveolar macrophages and neutrophils were determined by FACS analysis using anti-mouse MOMA2-FITC (macrophage) or anti-mouse 7/4-FITC (neutrophil). Cells were suspended in PBS and incubated with anti-MOMA2-FITC (2 μg/mL, Catalogue no SM065F, Acris Antibodies GmbH, Herford, Germany) or anti-7/4-FITC (2 μg/mL, Catalogue no CL050F, Acris Antibodies GmbH, Herford, Germany) for 30 min at 30° C., and then counterstained with propidium iodide (2 μg/mL) to allow exclusion of necrotic cells. The cells were washed with PBS, and transferred to FACS tubes. Samples was set in a flow cytometer (ALTRA II; Beckman Coulter Japan, Tokyo, Japan), and a single-parameter FL2 [PMT2] (FITC) histogram with log x-axis was plotted to illustrate relative intensity of FITC, Data files were stored for subsequent analysis using Kaluza analysis software (ver. 1.2) to calculate the proportion of each cell type.

[3] = tested on: LPS-induced airway neutrophilia in mice; assay: LPS-induced airway neutrophil accumulation in mice; type: in vivo, mouse; conditions: i-t; for Neutrophil numbers in BALF: mean ± SEM
Procedure: Non-fasted BALB/c mice (6-8 weeks old) were dosed with vehicle or with test compound by intra-tracheal administration (dose volume 20 μL) at time points T=−2 hr, −8 hr, or −12 hr with respect to the start of LPS treatment. The LPS was prepared in a solution of 0.5 mg/mL and aerosolised using a De Vibliss ultrasonic nebuliser 2000 (7 mL during 30 min exposure). At eight hr after LPS challenge, the trachea was cannulated and bronchoalveolar lavage fluid (BALF) extracted by infusing and then withdrawing PBS (1 mL) into the lungs via the tracheal catheter. This procedure was repeated to give a yield of approximately 2 mL lavage fluid. Total cell numbers in the BALF samples were measured using a haemocytometer. Cytospin smears of the BALF samples were prepared by centrifugation at 1200 rpm for 2 min at RT and stained using a DiffQuik stain system (Dade Behring) for differential cell counts. Cells were counted using oil immersion microscopy. Data are expressed as neutrophil number of cells per mL of BALF (mean±S.E.M).

PI3K β = PI3K β (Homo sapiens (Human), UniProt P42338); assay: PI3K enzyme inhibition assay (HTRF TR-FRET); type: biochemical
Sequence of PI3K β (P42338 whole entry, species assumed): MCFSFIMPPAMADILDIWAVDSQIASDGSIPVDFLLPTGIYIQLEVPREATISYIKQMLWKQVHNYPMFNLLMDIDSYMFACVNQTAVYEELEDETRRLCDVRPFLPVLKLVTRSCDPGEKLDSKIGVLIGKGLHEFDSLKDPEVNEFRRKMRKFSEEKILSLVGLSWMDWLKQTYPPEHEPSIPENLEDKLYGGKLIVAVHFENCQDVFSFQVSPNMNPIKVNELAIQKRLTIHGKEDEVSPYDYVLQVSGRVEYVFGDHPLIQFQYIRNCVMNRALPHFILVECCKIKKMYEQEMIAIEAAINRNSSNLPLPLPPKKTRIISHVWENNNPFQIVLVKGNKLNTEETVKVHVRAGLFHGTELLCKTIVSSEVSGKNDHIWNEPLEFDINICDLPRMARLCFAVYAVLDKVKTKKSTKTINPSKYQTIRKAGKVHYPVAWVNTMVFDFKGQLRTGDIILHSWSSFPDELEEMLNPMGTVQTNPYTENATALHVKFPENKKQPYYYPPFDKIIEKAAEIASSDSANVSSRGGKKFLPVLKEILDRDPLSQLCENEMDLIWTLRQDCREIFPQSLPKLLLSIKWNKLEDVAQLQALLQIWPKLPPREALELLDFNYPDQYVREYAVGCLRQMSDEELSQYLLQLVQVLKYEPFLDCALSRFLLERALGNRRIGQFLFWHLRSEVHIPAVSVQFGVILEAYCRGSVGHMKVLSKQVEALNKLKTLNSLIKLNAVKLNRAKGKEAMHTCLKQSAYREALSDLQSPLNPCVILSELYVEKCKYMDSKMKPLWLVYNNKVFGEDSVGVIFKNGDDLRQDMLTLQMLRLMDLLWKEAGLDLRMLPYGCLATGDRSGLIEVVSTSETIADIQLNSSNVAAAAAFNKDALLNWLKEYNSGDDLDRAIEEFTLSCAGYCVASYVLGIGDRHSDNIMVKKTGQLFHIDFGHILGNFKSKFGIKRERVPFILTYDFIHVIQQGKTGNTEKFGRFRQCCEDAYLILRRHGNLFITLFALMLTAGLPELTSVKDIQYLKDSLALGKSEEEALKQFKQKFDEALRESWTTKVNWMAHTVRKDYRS
Sequence of PI3K β (P27986 whole entry partner, species assumed): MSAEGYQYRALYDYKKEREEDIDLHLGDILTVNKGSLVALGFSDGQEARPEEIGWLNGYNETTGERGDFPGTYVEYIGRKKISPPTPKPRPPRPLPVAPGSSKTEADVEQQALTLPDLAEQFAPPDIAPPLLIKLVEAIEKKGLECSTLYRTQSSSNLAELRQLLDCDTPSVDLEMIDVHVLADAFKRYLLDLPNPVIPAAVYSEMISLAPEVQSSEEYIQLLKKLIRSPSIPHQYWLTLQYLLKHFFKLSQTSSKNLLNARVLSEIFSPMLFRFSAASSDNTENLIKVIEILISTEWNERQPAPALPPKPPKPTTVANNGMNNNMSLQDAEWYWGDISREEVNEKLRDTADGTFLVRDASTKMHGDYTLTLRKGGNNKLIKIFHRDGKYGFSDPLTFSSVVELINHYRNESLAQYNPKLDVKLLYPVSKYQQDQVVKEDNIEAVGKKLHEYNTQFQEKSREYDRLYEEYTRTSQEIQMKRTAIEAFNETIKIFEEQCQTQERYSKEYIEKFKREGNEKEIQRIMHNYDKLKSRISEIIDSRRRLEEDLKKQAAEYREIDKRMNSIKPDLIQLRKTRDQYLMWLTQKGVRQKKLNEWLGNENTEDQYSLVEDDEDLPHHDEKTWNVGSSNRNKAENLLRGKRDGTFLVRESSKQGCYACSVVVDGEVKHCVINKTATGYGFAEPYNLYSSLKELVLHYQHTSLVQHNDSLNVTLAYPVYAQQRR
Description: The PI3K enzymes catalyse the phosphorylation of phosphatidylinositol 4,5-biphosphate (PIP2) to phosphatidylinositol 3,4,5-triphosphate (PIP3) in the presence of ATP and Mg^2+ ions. The PIP3 product can be detected by displacement of biotin-PIP3 from energy transfer complexes consisting of europium labelled anti-GST monoclonal antibody, a GST-tagged Pleckstrin homology (PH) domain, biotinylated PIP3 and streptavidin-allophycocyanin (APC) by the time-resolved fluorescence resonance energy transfer (TR-FRET) (HTRF®PI3K enzyme assay, Millipore). Excitation, at 330 nm, of europium in the complex results in an energy transfer to the APC and a fluorescent emission at 665 nm although europium itself emits at its characteristic wavelength of 620 nm. The PIP3 product formed by PI3K activity displaces biotin-PIP3 from the complex and results in a loss of energy transfer (decreasing signal).
The compound to be tested was added, at the desired final concentrations, to a mixture of PIP2 substrate and a recombinant PI3K enzyme (either α, β or δ isoforms, ex Millipore, or γ isoform [p110γ+p101 construct], ex United States Biological, Swampscott, Mass.) and the mixture incubated for 2 hr at RT. Following this incubation period, ATP (10 μM) was added to the enzyme/compound/PIP2 substrate mixture and the resulting mixture was incubated for a further 30 min at RT. A stopping solution containing biotinylated PIP3 and the detection mix containing the GST tagged GRP1 pleckstrin homology (PH) domain and fluorophores were then added and the mixture was incubated at RT for 15-18 hr, prior to detection in a fluorescence microplate reader (Synergy 4, BioTek UK, Bedfordshire, UK).
The results were calculated according to the formula: APC signal (emission at 665 nm)/europium signal (emission at 620 nm)×10^4. The percentage inhibition of each reaction was calculated relative to DMSO treated control, and the 50% inhibitory concentration (IC50 value) then calculated from the concentration-response curve.

COCCOCCOCC#Cc1cccc2nc(Cn3nc(-c4cc(O)cc(F)c4)c4c(N)ncnc43)n(Cc3ccccc3C(F)(F)F)c(=O)c12 [Compound (I), 2-((4-Amino-3-(3-fluoro-5-hydroxyphenyl)-1H-pyrazolo[3,4-d]pyrimidin-1-yl)methyl)-5-(3-(2-(2-methoxyethoxy)ethoxy)prop-1-yn-1-yl)-3-(2-(trifluoromethyl)benzyl)quinazolin-4(3H)-one]
% inhibition of neutrophil numbers in BALF ([1]; 0.05 mg/mL, pre-dose 2 hr): 9% | Neutrophil numbers in BALF ([1]; 0.05 mg/mL, pre-dose 2 hr): 13.2 ± 2.3 x10^5/mL | % inhibition of neutrophil numbers in BALF ([1]; 0.2 mg/mL, pre-dose 2 hr): 58% | Neutrophil numbers in BALF ([1]; 0.2 mg/mL, pre-dose 2 hr): 6.3 ± 1.6 x10^5/mL | % inhibition of neutrophil numbers in BALF ([1]; 0.2 mg/mL, pre-dose 8 hr): 33% | Neutrophil numbers in BALF ([1]; 0.2 mg/mL, pre-dose 8 hr): 10.1 ± 1.8 x10^5/mL | % inhibition of neutrophil numbers in BALF ([1]; 0.2 mg/mL, pre-dose 12 h): 10% | Neutrophil numbers in BALF ([1]; 0.2 mg/mL, pre-dose 12 h): 13.6 ± 2.7 x10^5/mL | % inhibition of neutrophil numbers in BALF ([1]; 1.0 mg/mL, pre-dose 2 hr): 73% | Neutrophil numbers in BALF ([1]; 1.0 mg/mL, pre-dose 2 hr): 4.1 ± 0.7 x10^5/mL | potency versus compound A on poly-I:C-induced cell accumulation (in words) ([2]; direct comparison): significantly greater potency than compound A | % inhibition, Macrophages in BALF ([2]; 0.002 mg/mL): 49% | % inhibition, Neutrophils in BALF ([2]; 0.002 mg/mL): 43% | Cell numbers in BALF, Macrophages ([2]; 0.002 mg/mL): 11.5 ± 0.2 x10^4/mL | Cell numbers in BALF, Neutrophils ([2]; 0.002 mg/mL): 7.3 ± 0.3 x10^4/mL | % inhibition, Macrophages in BALF ([2]; 0.02 mg/mL): 69% | % inhibition, Neutrophils in BALF ([2]; 0.02 mg/mL): 65% | Cell numbers in BALF, Macrophages ([2]; 0.02 mg/mL): 8.3 ± 0.3 x10^4/mL | Cell numbers in BALF, Neutrophils ([2]; 0.02 mg/mL): 5.0 ± 0.2 x10^4/mL | % inhibition, Macrophages in BALF ([2]; 0.2 mg/mL): 79% | % inhibition, Neutrophils in BALF ([2]; 0.2 mg/mL): 77% | Cell numbers in BALF, Macrophages ([2]; 0.2 mg/mL): 6.8 ± 0.3 x10^4/mL | Cell numbers in BALF, Neutrophils ([2]; 0.2 mg/mL): 3.8 ± 0.2 x10^4/mL | % inhibition of neutrophil numbers in BALF ([3]; 0.05 mg/mL, pre-dose 2 hr): 19% | Neutrophil numbers in BALF ([3]; 0.05 mg/mL, pre-dose 2 hr): 13.8 ± 2.5 x10^5/mL | % inhibition of neutrophil numbers in BALF ([3]; 0.2 mg/mL, pre-dose 2 hr): 53% | Neutrophil numbers in BALF ([3]; 0.2 mg/mL, pre-dose 2 hr): 8.0 ± 1.4 x10^5/mL | % inhibition of neutrophil numbers in BALF ([3]; 0.2 mg/mL, pre-dose 8 hr): 45% | Neutrophil numbers in BALF ([3]; 0.2 mg/mL, pre-dose 8 hr): 9.4 ± 2.0 x10^5/mL | % inhibition of neutrophil numbers in BALF ([3]; 0.2 mg/mL, pre-dose 12 h): 23% | Neutrophil numbers in BALF ([3]; 0.2 mg/mL, pre-dose 12 h): 13.1 ± 2.5 x10^5/mL | % inhibition of neutrophil numbers in BALF ([3]; 1.0 mg/mL, pre-dose 2 hr): 68% | Neutrophil numbers in BALF ([3]; 1.0 mg/mL, pre-dose 2 hr): 5.5 ± 0.9 x10^5/mL | inhibitory activity versus PI3K β in enzyme assays (in words) (PI3K β): low inhibitory activity | IC50 (PI3K β; read-out: IC50 Values for PI3K inhibition at isozyme indicated, PI3K β): 4.89 µM | IC50 (PI3K β; read-out: PI3 Kinase Inhibition IC50 value at state isozyme, β): 4.89 µM
